Laboratory results as given in paper PMC11237399, “Synergistic effects of sulopenem in combination with cefuroxime or durlobactam against Mycobacterium abscessus” (mBio, 2024).

Columns and labels:
LdtMab2 = target: T1, LdtMab2 (Mycobacteroides abscessus, UniProt B1MMQ4); assay: intact-protein UPLC-ESI-MS (Q-TOF); format: binding; conditions: covalent; 1:20 enzyme:ligand, 50 mM Tris-HCl pH 7.5, 300 mM NaCl, room temperature
T1 construct: gene MAB_1530; truncated (delta 1-41), pET28a(+), E. coli BL2 (DE3), His tag cut by TEV
T1 sequence (B1MMQ4 42-406): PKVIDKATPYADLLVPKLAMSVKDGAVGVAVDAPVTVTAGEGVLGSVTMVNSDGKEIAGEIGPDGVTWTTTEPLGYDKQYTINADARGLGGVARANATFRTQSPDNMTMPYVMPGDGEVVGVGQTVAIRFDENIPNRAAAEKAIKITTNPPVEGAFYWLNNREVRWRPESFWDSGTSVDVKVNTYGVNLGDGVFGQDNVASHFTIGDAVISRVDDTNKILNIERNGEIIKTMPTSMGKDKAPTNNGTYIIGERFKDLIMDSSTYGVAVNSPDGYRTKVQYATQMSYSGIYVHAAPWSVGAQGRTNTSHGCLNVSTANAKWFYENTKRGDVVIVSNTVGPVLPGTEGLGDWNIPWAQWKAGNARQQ

PBP B = target: T2, PBP B (Mycobacteroides abscessus, UniProt B1MP31); assay: intact-protein UPLC-ESI-MS (Q-TOF); format: binding; conditions: covalent; 1:20 enzyme:ligand, 50 mM Tris-HCl pH 7.5, 300 mM NaCl, room temperature
T2 construct: gene MAB_2000; truncated (delta 1-41), pET28a(+), E. coli BL2 (DE3), His tag cut by TEV
T2 sequence (B1MP31 42-642): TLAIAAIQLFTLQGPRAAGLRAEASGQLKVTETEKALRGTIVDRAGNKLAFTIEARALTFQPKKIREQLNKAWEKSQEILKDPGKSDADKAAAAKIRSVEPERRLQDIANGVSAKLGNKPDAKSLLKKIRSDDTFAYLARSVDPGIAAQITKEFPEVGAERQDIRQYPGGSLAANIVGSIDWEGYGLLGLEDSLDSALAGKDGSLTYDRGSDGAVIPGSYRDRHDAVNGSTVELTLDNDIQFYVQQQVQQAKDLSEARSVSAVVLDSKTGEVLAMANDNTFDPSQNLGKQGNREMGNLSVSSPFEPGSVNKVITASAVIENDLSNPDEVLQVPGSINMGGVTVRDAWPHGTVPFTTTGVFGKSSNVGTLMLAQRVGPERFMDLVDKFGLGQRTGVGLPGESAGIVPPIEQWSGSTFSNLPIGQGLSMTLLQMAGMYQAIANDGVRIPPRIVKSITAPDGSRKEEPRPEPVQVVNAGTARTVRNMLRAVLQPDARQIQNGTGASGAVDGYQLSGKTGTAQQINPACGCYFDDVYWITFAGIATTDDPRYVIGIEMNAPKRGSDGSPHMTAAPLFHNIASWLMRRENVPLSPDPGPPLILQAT

[1] = tested on: T3, Mycobacteroides abscessus subsp. abscessus Mab 122; assay: microbe, parasite or virus in culture; set-up: species or system Mycobacterium abscessus clinical isolates; broth microdilution MIC in Middlebrook 7H9 with OADC and Tween 80, 30 C, 3-7 days, visible growth; conditions: single agent, read-out: MIC50 (μg/ml) Alone
T3 construct: clinical isolate Mab122
Experimental: (§1) Minimum inhibitory concentrations (MICs) of sulopenem and CXM were determined using microdilution. Approximately 5 × 10^5 colony-forming units (CFU) per milliliter were inoculated into Middlebrook 7H9 broth supplemented with 10% (vol/vol) oleic albumin dextrose catalase (OADC) and 0.05% (vol/vol) Tween 80. When CXM is combined with sulopenem, the CXM is added at a fixed concentration of 4 µg/mL to serial dilutions of sulopenem. Isolates were incubated with test agents at 30°C for 3–7 days, and MIC was defined as the lowest antibiotic concentration that prevented visible bacterial growth. We use active moiety compounds, like cefuroxime salt, and not cefuroxime axetil. The 54 clinical isolates analyzed in this study were obtained from deidentified patients. To ensure consistency and reliability, we specifically selected isolates from our well-characterized whole genome-sequenced clinical isolates belonging to the Mycobacterium abscessus subspecies abscessus. Of these, 34 isolates were sourced from National Jewish Health, whereas 11 and 9 isolates were obtained from University Hospitals Cleveland Medical Center and Cleveland Metrohealth, respectively. Additionally, ATCC 19977 was acquired from the American Type Culture Collection (ATCC). The active ingredient cefuroxime (CXM) salts and avibactam (AVI) were purchased from AchemBlock, sulopenem was sourced from Iterum Therapeutics, and durlobactam (DUR) was provided from Entasis Therapeutics. All β-lactams and BLIs were prepared in sterile, distilled water or in broth and filter-sterilized with a 0.22 µm PES syringe filter.

[2] = tested on: T4, Mycobacteroides abscessus subsp. abscessus Mab 686; assay: microbe, parasite or virus in culture; set-up: species or system Mycobacterium abscessus clinical isolates; broth microdilution MIC in Middlebrook 7H9 with OADC and Tween 80, 30 C, 3-7 days, visible growth; conditions: single agent, read-out: MIC50 (μg/ml) Alone
T4 construct: clinical isolate Mab686
Experimental: as §1

Structure (SMILES): CO/N=C(\C(=O)N[C@@H]1C(=O)N2C(C(=O)O)=C(COC(N)=O)CS[C@H]12)c1ccco1 [cefuroxime]
- intact-protein UPLC-ESI-MS (Q-TOF) (LdtMab2): CXM engaged solely with LdtMab2 and PBP B
- intact-protein UPLC-ESI-MS (Q-TOF) (PBP B): CXM engaged solely with LdtMab2 and PBP B
- MIC50 [1]: 4 µg/mL
- MIC50 [2]: 8 µg/mL

Structure (SMILES): NC(=O)[C@@H]1CC[C@@H]2CN1C(=O)N2OS(=O)(=O)O [avibactam]
- MIC50 [1]: > 128 µg/mL
- MIC50 [2]: > 128 µg/mL

Structure (SMILES): C[C@@H](O)[C@H]1C(=O)N2C(C(=O)O)=C(S[C@H]3CC[S@@+]([O-])C3)S[C@H]12 [sulopenem]
- MIC50 [1]: 0.5 µg/mL
- MIC50 [2]: 2 µg/mL
